The values below come from patent US20250092353A1, “COMMENSAL FUNGUS AND USES THEREOF” (YEDA RESEARCH AND DEVELOPMENT CO. LTD., priority 2022, published 2025).

Test [1] deals with C. albicans SC5314 (ENO1-GFP). Briefly: In vivo competition with C. albicans in germ-free animals. The arrangement: species or system mice. Conditions: oral mixture of the two fungi. From the text:
(§1) FIGS. 3A-3M include fluorescent micrographs, graphs, and a scheme, showing K. weizmannii competition with C. albicans in colonized animals. (3A) A representative picture of a far-red fluorescent reporter Kazachstania strain (K. weizmannii ENO1-Mirf). (3B-C) Recoverable fecal K. weizmannii in colonized wild-type animals (without antibiotics) one and six months after single oral K. weizmannii ENO1-Mirf inoculation. (3D) Flow cytometric analysis of C. albicans SC5314 (ENO1-GFP), K. weizmannii (ENO1-Mirf), and mixed cultures used for oral inoculation (3E). […] Quantification (n=3-5 mice per group, 4 independent experiments) (see (3D). (3H) Schematic non-limiting outline of a co-housing experiment. (3I) Representative flow cytometric feces analysis of colonized mice 4 weeks after initial colonization (before cohousing) and 2 weeks after co-housing. (N=4 per group). (3J) Percentages of respective labelled fungi in feces of C. albicans, K. weizmannii colonized animals, before and after co-housing in Abx presence (except for day 48 and 58); antibiotics withdrawal on day 46 of cohousing, n=4 per group, representative of 2 independent experiments. (3K) Flow cytometric analysis of feces of germfree animals 1 week after oral inoculation of single fungi cultures or mixed C. albicans SC5314 (ENO1-GFP)/K. weizmannii (ENO1-Mirf) culture. […]

For test [2], the system named is C. albicans SC5314 (ENO1-GFP). Briefly: In vivo competition with C. albicans in Abx-treated SPF mice (co-inoculation, cohousing).
Excerpt: as §1

The next test deals with serum IgA and IgG. Briefly: In vitro serum antibody binding assay (sera of colonized mice). The format is in vivo. Conditions: single-colonized animals. The protocol:
Blood was collected from mice at rested at RT for 1 hour, followed by centrifugation 2,000 g 10 min. Serum supernatant was collected and froze at −80° C. until use. Cultured fungi were normalized to OD600=1 in PBS supplemented with 1% bovine serum albumin and 0.01% sodium azide (PBA solution). Cultured fungi were incubated with 20× diluted mouse serum on ice for 45 minutes, then washed twice with PBA, followed by staining with anti-mouse IgA and IgG. Samples were recorded on Cytek Aurora and analyzed in FlowJo (Treestar). Antibody binding intensity was normalized to the negative controls. Isotype control, non-stained and no-serum were used as negative controls.

Take Kazachstania weizmannii [K. weizmannii]: the “C. albicans colonization after co-inoculation” value in test [1] is “prevented efficient C. albicans colonization”; in test [2] (Abx-treated mice, 1:1 mixture of K. weizmannii and C. albicans), “Candida colonization was prevented”. Also, in test [2] (mice stably colonized with C. albicans (on Abx) cohoused with K. weizmannii-harboring mice), the “displacement of established commensal C. albicans” value is reported as “progressive rapid ousting of C. albicans”. In addition, the “anti-fungal serum IgA and IgG titers” value in the test on serum IgA and IgG was “induced robust anti-fungal serum IgA and IgG titers in most animals”.
